Target: T1, endogenous PTHR in ROS 17/2.8 cells (Rattus norvegicus, UniProt P25961)
T1 construct: ROS 17/2.8 cells are rat osteosarcoma cells and express the endogenous PTHR; endogenous in cells; host or cells: ROS 17/2.8 rat osteosarcoma cells
T1 sequence (P25961 27-591): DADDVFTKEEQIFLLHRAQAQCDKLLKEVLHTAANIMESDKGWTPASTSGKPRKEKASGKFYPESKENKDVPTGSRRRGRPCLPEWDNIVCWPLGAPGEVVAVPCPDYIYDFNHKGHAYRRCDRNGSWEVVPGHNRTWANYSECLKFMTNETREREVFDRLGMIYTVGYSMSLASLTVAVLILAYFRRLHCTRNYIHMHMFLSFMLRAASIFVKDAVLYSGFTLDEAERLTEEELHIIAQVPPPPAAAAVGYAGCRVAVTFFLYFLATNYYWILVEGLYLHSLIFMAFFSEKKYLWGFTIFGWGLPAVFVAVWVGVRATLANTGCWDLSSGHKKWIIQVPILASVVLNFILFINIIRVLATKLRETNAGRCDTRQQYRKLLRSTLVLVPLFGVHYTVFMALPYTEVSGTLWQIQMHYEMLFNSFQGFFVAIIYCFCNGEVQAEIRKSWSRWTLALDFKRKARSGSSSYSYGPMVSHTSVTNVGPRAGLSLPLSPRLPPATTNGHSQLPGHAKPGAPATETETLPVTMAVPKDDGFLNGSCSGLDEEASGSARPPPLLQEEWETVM
Test: Stimulation of intracellular cAMP in ROS 17/2.8 cells
Format: cell-based
Description: Cell Culture—Cells were cultured at 37° C. in a humidified atmosphere containing 5% CO2 in Dulbecco's modified Eagle's medium (DMEM), supplemented with 10% fetal bovine serum (HyClone, Logan Utah), 100 units/ml penicillin G, and 100 ug/ml streptomycin penicillin G/streptomycin (Invitrogen Corp. Carlsbad, Calif.). For binding and cAMP studies performed with the intact PTHR, the HKRK-B7 and ROS 17/2.8 cell lines were used. HKRK-B7 cells are derived from the porcine kidney cell line LLC-PK1 and express, via stable DNA transfection, the wild-type human PTHR at an approximate surface density of 950,000 PTH-binding sites per cell. ROS 17/2.8 cells are rat osteosarcoma cells and express the endogenous PTHR at an approximate surface density of 80,000 PTH-binding sites per cell. The cells were plated and assayed in 24-well plates.
Stimulation of intracellular cAMP and inositol phosphate—The capacities of the ligands to stimulate adenylyl cyclase activity were assessed in intact ROS 17/2.8 cells, as described (Shimizu, M., (2001) Endocrinology 142:3068-3074). […] The cAMP in the thawed lysate was then quantified by radioimmuno assay. The stimulation of production of inositol phosphates (IP1+IP2+IP3) was assessed in COS-7 cells transfected with the intact human PTHR, as described previously (Shimizu, M., (2001) Endocrinology 142:3068-3074). […]

“SVSEIQLMHNLGKHLNSMEEVEWLRKKLQDV [Arg^20→Glu]” showed an EC50 of 59 ± 31 nM.

Source: patent publication US8143374B2, “Polypeptide derivatives of parathyroid hormone (PTH)” (The General Hospital Corporation, priority 2006, dated 2012)
